The nature of series [1]: Cyclic voltammetry: oxidation/reduction potentials vs. Ag/AgCl. The format is physicochemical. The text has this: Klimovich, A. A., Popov, A. M., Krivoshapko, O. N., Shtoda, Y. P. & Tsybulsky, A. V. A comparative assessment of the effects of alkaloid tryptanthrin, rosmarinic acid, and doxorubicin on the redox status of tumor and immune cells. Biophysics 62, 588-594 (2017) and in Jahng, Y. Progress in the studies on tryptanthrin, an alkaloid of history. Arch. Pharm. Res. 36, 517-535 (2013)), the electrochemical behavior of the compounds was initially performed by measuring cyclic voltammetry (CV) of TRYP at different pH values. Cyclic voltammograms (CVs) are presented in FIG. 3 and the relevant electrochemical data including the oxidation (Epa) and reduction (Epc) potentials are summarized in table 1.
Cyclic voltammetry (CV) experiments were carried out using an Autolab potentiostat/galvanostat PGSTAT204 running with NOVA 2.1 software and a three-electrode system in a one-compartment electrochemical cell of capacity 10 mL. A glassy carbon electrode (GCE) (d=3 mm) was the working electrode, glassy carbon (GC) (d=1.6 mm) wires the counter electrode and Ag/AgCl (3.0 M KCl) the reference electrode. The GCE was polished with appropriate polishing pads using first aluminium oxide with particle size 0.3 μm and then aluminium oxide particle with size 0.075 μm (polish in a […] motion) before each electrochemical experiment. After polishing, the electrode was rinsed thoroughly with Milli-Q water and the electrode was sonicate in a container with Milli-Q water and ethanol (50:50 v/v) for 5 minutes. Following this mechanical treatment, the GCE was placed in buffer supporting electrolyte and differential pulse voltammograms were recorded until a steady state baseline voltammogram was obtained.
Depending on the pH experiments different electrolytes were used, for pH=0 (1.0 M H2SO4) solution, for pH=7 (1.0 M KCl) solution and pH =13 (1.0 M NaOH) solution. Potassium ferricyanide ([…]) (1.0 mM solution) with 1.0 M of the proper electrolyte in 10 mL of Milli-Q water was used as standard and also degassed with nitrogen for 10 minutes prior to analysis. Lastly, to measure the OCV for BQDS, 1.0 mM was dissolved into 1.0 M KCl solution. An atmosphere of nitrogen was maintained during the voltammetric experiments, and the samples were run at a scan rate of 50 mV s^−1.

Series [2] is described as follows: Cyclic voltammetry scan rate study: diffusion coefficient (Randles-Sevcik) and electron transfer rate constant (Nicholson). It counts as physicochemical. On the procedure: To further verify the correlation between the reaction rate of the catholyte/anolyte pair with the performance and stability of the RFBs, the kinetic parameters, diffusion coefficient (D), and electron transfer rate constant (k0), were quantified.
Electrochemical kinetics studies were conducted by CV measurements and Nicholson analysis. […] The Randles-Sevcik equation, described in Elgrishi et al, A Practical Beginner's Guide to Cyclic Voltammetry. Journal of Chemical Education 2018, 95 (2), 197-206, was used to calculate the diffusion coefficient (D in cm^2 s^−1). A linear fit (ip=slope x v½) yields the slope of the cathodic and anodic peaks from which the D was obtained.
The electron transfer rate constant (k0) of K4[Fe(CN)6]/TRYP-SO3 redox couple was estimated by using the Nicholson method using the D values previously obtained, as described in Nicholson, R. S., Theory and Application of Cyclic Voltammetry for Measurement of Electrode Reaction Kinetics. Analytical Chemistry 1965, 37 (11), 1351-1355.
The electron transfer rate constant (k0) of BQDS/TRYP-SO3 redox couple and TRYP-NH2 was estimated by using the Nicholson method using the D values previously obtained, as described in Nicholson, R. S., Theory and Application of Cyclic Voltammetry for Measurement of Electrode Reaction Kinetics. Analytical Chemistry 1965, 37 (11), 1351-1355.
First, a solution of 1.0 mM of K4[Fe(CN)6] with 1.0 M of KCl in 10 mL of Milli-Q water was used as catholyte. Second, the catholyte was prepared by dissolving 1.0 mM of BQDS into 10 mL of 1.0 M KCl solution. All the solutions were degassed with nitrogen for 10 min prior to analysis. An atmosphere of nitrogen was maintained during the voltammetric experiments, and the samples were run at a scan rate of 10-100 mV s^−1 range. All the CV experiments were carried out at T=293 K.

Series [3] can be described thus: Solubility in supporting electrolyte / water. The format is physicochemical. The following applies: 1.0 M KCl solution, saline or isotonic; in 1.0 M KCl.
For series [4] the following is noted: acidic medium, reported studies; cited from earlier work.
The conditions of series [5]: in 1.0 M H2SO4; cited from earlier work.
[6] abbreviates: neutral pH, 1.0 mM in 1.0 M KCl.
Where [7] appears, read: 1.0 mM in 1.0 M KCl, Nicholson method, T = 293 K.

Read-outs that look alike come from different tables or passages of the source.

Turning to `O.O=S(=O)([O-])c1cc(O)c(O)c(S(=O)(=O)[O-])c1.[Na+].[Na+]` [BQDS, 4,5-dihydroxy-1,3-benzenedisulfonic acid disodium salt monohydrate, reference compound], the “Electrode potential in KCl” value in series [1] (in KCl, neutral pH) was 0.94 V. The “Redox potential vs. Ag/AgCl” value in series [1] (setting [6]) came to 0.48 V. The “Diffusion coefficient (D)” value in series [2] (1.0 mM in 1.0 M KCl, 10-100 mV s^−1, T = 293 K) came to 5.38e-07 cm/s. In series [2] (setting [7]), the “Electron transfer rate constant (k0)” value came out at 0.000271 cm/s. For the same compound, the solubility (commonly the concentration that dissolves in the medium under given conditions) in series [3] is 1280 mM. Further, in series [4], the Electrode potential is recorded as 0.76 V. In series [5], the “Solubility in sulfuric acid” value was 650 mM.

With `Nc1ccc2nc3n(c(=O)c2c1)-c1ccccc1C3=O` [TRYP-NH2, 2-aminoindolo[2,1-b]quinazoline-6,12-dione], the “Redox potential vs. Ag/AgCl” value in series [1] (setting [6]) is given as −0.45 V. Also, the “Electron transfer rate constant (k0)” value in series [2] (setting [7]) was found to be 0.264 cm/s.

Regarding `O=C1c2cc(S(=O)(=O)O)ccc2-n2c1nc1ccccc1c2=O` [TRYP-SO3H, 6,12-dioxo-6,12-dihydroindolo[2,1-b]cquinazoline-8-sulfonic acid], the “Redox potential vs. Ag/AgCl” value in series [1] was −0.46 V. For the same compound, in series [1] (pH 13), the “Oxidation potential Epa^1 (first peak)” value is listed as “Epa^1 = 0.225 V”, the “Oxidation potential Epa^2 (second peak)” value is listed as “Epa^2 = 0.738 V”, the “Oxidation potential Epa^3 (third peak)” value is reported as “Epa^3 = 1.178 V” and the “Reduction potential Epc^1 (first peak)” value is “Epc^1 = −0.325 V”. Moreover, in series [1] (pH 13), the “Reduction potential Epc^2 (second peak)” value is “Epc^2 = −0.802 V” and the “Reduction potential Epc^3 (third peak)” value is “Epc^3 = −0.930 V”. In series [2], the “Diffusion coefficient (D)” value was 6.98e-08 cm/s and the “Electron transfer rate constant (k0)” value came out at 0.000362 cm/s.

These data come from US20230279011A1, “WATER-SOLUBLE TRYPTHANTRIN DERIVATIVES FOR REDOX FLOW BATTERIES” (UNIVERSIDADE DE COIMBRA, priority 2020, published 2023).
